Among the data in US8530461B2 (Boehringer Ingelheim International GmbH, priority 2011, dated 2013) are IC50 values, retold here.

T1 sequence (O00763 129-2458 limits assumed): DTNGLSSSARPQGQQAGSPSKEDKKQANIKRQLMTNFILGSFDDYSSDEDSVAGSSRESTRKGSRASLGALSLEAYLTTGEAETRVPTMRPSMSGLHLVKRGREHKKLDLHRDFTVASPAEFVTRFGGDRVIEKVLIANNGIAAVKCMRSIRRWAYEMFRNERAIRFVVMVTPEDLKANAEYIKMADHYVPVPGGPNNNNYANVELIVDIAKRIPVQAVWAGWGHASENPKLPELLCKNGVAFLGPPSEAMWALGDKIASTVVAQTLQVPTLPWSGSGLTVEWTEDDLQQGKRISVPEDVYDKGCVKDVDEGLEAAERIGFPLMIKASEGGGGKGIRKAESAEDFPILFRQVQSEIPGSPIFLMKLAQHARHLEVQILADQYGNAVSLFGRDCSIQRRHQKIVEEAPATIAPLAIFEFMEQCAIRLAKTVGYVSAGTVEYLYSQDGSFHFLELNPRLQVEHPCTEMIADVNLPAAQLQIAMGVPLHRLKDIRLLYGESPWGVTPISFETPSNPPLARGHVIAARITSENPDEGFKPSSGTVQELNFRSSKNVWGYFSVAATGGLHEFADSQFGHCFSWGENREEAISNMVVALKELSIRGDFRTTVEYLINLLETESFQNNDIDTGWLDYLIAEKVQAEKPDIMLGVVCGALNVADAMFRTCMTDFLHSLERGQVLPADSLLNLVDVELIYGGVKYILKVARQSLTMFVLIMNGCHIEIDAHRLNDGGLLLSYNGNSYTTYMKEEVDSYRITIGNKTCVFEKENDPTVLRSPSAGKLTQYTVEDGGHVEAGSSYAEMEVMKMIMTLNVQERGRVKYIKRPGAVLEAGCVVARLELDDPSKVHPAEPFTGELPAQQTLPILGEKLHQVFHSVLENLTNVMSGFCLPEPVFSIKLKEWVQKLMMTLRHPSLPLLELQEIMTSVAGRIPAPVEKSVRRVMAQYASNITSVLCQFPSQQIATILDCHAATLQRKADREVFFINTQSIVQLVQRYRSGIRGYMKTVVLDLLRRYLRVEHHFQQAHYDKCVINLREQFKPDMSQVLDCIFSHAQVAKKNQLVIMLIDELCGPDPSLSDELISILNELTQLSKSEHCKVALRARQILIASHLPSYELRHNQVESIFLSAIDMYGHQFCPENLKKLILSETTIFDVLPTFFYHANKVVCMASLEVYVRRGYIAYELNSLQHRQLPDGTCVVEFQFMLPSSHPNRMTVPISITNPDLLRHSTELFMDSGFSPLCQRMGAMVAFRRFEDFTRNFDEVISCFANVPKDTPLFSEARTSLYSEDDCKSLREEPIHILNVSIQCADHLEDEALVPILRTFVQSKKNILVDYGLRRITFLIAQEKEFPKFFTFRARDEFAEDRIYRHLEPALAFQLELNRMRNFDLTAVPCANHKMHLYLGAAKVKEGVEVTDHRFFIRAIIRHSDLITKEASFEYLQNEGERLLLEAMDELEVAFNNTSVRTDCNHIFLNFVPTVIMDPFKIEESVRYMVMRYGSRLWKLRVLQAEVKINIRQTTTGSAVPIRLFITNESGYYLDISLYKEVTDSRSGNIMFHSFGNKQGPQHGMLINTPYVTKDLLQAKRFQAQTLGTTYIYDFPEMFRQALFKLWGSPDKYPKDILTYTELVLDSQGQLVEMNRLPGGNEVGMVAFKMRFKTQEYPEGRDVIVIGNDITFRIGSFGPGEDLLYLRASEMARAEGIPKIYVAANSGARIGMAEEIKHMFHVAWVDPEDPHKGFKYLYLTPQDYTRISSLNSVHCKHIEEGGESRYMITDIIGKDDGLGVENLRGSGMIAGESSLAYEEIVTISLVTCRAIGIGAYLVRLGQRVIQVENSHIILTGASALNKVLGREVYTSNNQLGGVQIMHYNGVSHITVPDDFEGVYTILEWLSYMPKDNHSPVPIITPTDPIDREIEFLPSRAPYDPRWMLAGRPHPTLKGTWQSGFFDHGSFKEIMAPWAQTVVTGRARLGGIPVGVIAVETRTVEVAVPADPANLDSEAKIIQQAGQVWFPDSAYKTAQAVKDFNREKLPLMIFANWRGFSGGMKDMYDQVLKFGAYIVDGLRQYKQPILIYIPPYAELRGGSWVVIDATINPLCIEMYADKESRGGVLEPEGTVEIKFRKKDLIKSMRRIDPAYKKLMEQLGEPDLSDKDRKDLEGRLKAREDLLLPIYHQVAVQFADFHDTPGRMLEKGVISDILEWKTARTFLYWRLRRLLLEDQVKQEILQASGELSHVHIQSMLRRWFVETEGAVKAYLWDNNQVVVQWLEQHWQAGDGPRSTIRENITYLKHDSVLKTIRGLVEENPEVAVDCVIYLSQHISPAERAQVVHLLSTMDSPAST

This test has as its target T1, human ACC2 (Homo sapiens, UniProt O00763).
T1 construct: made in house; host or cells: insect cells (baculoviral expression system)
The experiment in a line: ACC2 assay, spectrophotometric 384 well assay (NADH-linked, coupled lactate dehydrogenase/pyruvate kinase). Conditions: ACC2 assay; human ACC2 construct lacking 128 N-terminal amino acids; 25° C., 340 nm, 15 minutes; read-out: IC50. The format is biochemical. Put shortly: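 N-terminally truncated (Δ128) human ACC2 expressed in baculovirus/insect cells; ADP formation coupled via pyruvate kinase/lactate dehydrogenase to NADH consumption, pH 7.5, 25 mM KHCO3, 1% DMSO. Reaction started with NADH, acetyl-CoA and ATP (500 uM f.c.); A340 slope over 15 min at 25° C, IC50 by four-parameter fit after subtracting no-acetyl-CoA controls.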
As for `CCOc1c(F)cc(OC2CN(c3ccc([C@H](C)NC(=O)C4CC4)cc3)C2)cc1F` [Example 10.30], the half-inhibitory concentration (IC50) amounted to 1560 nM.
For the molecule `CCOc1c(F)cc(OC2CN(c3ccc([C@H](C)NC(C)=O)cc3)C2)cc1F` [Example 10.31], the concentration for half-maximal inhibition (IC50) worked out at 300 nM.
As to `COc1ccc(OC2CN(c3ccc([C@H](C)NC(C)=O)cc3)C2)cn1` [Example 10.32], the IC50 stood at 730 nM.
With `CC(=O)N[C@@H](C)c1ccc(N2CC(Oc3ccnc(OCC4CC4)c3)C2)cc1` [Example 11.1, (S)—N-(1-{4-[3-(2-Cyclopropylmethoxy-pyridin-4-yloxy)-azetidin-1-yl]-phenyl}-ethyl)-acetamide] the figure was 80 nM.
For `CC(=O)N[C@@H](C)c1ccc(N2CC(Oc3ccnc(O[C@@H]4CCOC4)c3)C2)cc1` [Example 11.2], the half-maximal inhibitory concentration (IC50) was 270 nM.
With `CC(=O)N[C@@H](C)c1ccc(N2CC(Oc3ccnc(OCC(C)C)c3)C2)cc1` [Example 11.3] the figure was 60 nM.
`CC(=O)N[C@@H](C)c1ccc(N2CC(Oc3ccnc(OCC4CC4(F)F)c3)C2)cc1` (some centres unmarked) [Example 11.5]: the IC50 came out at 100 nM.
Regarding `CC(=O)NC(C)c1ccc(N2CC(Oc3ccnc(OCC(F)F)c3)C2)cc1` (centres unmarked) [Example 11.6], the IC50 stood at 150 nM.
With `CC(C)COc1cc(OC2CN(c3ccc(C(C)NC(=O)C4CC4)cc3)C2)ccn1` (centres unmarked) [Example 11.7] the figure was 230 nM; with `CC(=O)N[C@@H](C)c1ccc(N2CC(Oc3cccc(N(C)CC(C)(C)O)n3)C2)cc1` [Example 12.1, (S)—N-{1-[4-(3-{6-[(2-Hydroxy-2-methyl-propyl)-methyl-amino]-pyridin-2-yloxy}-azetidin-1-yl)-phenyl]ethyl}-acetamide], 810 nM; with `CC(=O)N[C@@H](C)c1ccc(N2CC(Oc3cccc(OCC4CC4)n3)C2)cc1` [Example 12.2], 1380 nM.
`CCCOc1cccc(OC2CN(c3ccc([C@H](C)NC(C)=O)cc3)C2)n1` [Example 12.3]: the IC50 was 730 nM.
As to `CC(=O)N[C@@H](C)c1ccc(N2CC(Oc3cccc(N4CCC(C)CC4)n3)C2)cc1` [Example 12.4], the IC50 came out at 220 nM.
In the case of `CC(=O)N[C@@H](C)c1ccc(N2CC(Oc3cccc(C)n3)C2)cc1` [Example 12.5] it was 530 nM; in that of `CC(=O)N[C@@H](C)c1ccc(N2CC(Oc3cccc(N(C)C)n3)C2)cc1` [Example 12.6], 90 nM; in that of `CC(=O)N[C@@H](C)c1ccc(N2CC(Oc3cccc(OC4CCC4)n3)C2)cc1` [Example 12.7], 310 nM.
With `CC(=O)N[C@@H](C)c1ccc(N2CC(Oc3cccc(OC4CCOC4)n3)C2)cc1` (some centres unmarked) [Example 12.8] the figure was 1750 nM; with `CC(=O)N[C@@H](C)c1ccc(N2CC(Oc3cccc(OC(C)C)n3)C2)cc1` [Example 12.9], 490 nM; with `CC(=O)N[C@@H](C)c1ccc(N2CC(Oc3cccc(C4CC4)n3)C2)cc1` [Example 12.10], 450 nM.
For the molecule `CCc1cccc(OC2CN(c3ccc([C@H](C)NC(C)=O)cc3)C2)n1` [Example 12.11], the IC50 is 330 nM.
As for `CC(=O)N[C@@H](C)c1ccc(N2CC(Oc3cccc(C(F)F)n3)C2)cc1` [Example 12.12], the IC50 was found to be 100 nM.
Consider `CC(=O)N[C@@H](C)c1ccc(N2CC(Oc3cccc(C4CCCC4)n3)C2)cc1` [Example 12.13], for which the IC50 came out at 180 nM.
`CC(=O)N[C@@H](C)c1ccc(N2CC(Oc3cccc(C4CCC4)n3)C2)cc1` [Example 12.14]: the 50% inhibitory concentration (IC50) was found to be 220 nM.
With `CC(=O)N[C@@H](C)c1ccc(N2CC(Oc3cccc(N4CCOCC4)n3)C2)cc1` [Example 12.15] the figure was 830 nM; with `CCOc1cccc(OC2CN(c3ccc([C@H](C)NC(C)=O)cc3)C2)n1` [Example 12.16], 380 nM.
For `CC(=O)N[C@@H](C)c1ccc(N2CC(Oc3cccc(C(C)(C)C)n3)C2)cc1` [Example 12.17], the half-maximal inhibitory concentration (IC50) was 50 nM.
In the case of `CC(=O)N[C@@H](C)c1ccc(N2CC(Oc3cccc(OCC4CC4(F)F)n3)C2)cc1` (some centres unmarked) [Example 12.18] it was 650 nM; in that of `CC(=O)N[C@@H](C)c1ccc(N2CC(Oc3cccc(C(C)C)n3)C2)cc1` [Example 12.19], 230 nM.
As for `CC(=O)N[C@@H](C)c1ccc(N2CC(Oc3ccnc(N4CCOCC4)n3)C2)cc1` [Example 13.1, (S)—N-(1-{4-[3-(2-Morpholin-4-yl-pyrimidin-4-yloxy)-azetidin-1-yl]-phenyl}-ethyl)-acetamide], the half-inhibitory concentration (IC50) was found to be 350 nM.
On to `CC(=O)N[C@@H](C)c1ccc(N2CC(Oc3ccnc(N4CCCC4)n3)C2)cc1` [Example 13.2, (S)—N-(1-{4-[3-(2-Pyrrolidin-1-yl-pyrimidin-4-yloxy)-azetidin-1-yl]-phenyl}-ethyl)-acetamide], for which the half-inhibitory concentration (IC50) turned out to be 60 nM.
With `COc1cccc(OC2CN(c3ccc([C@H](C)NC(C)=O)cc3)C2)n1` [Example 14.1, (S)—N-(1-{4-[3-(6-Methoxy-pyridin-2-yloxy)-azetidin-1-yl]-phenyl}-ethyl)-acetamide] the figure was 380 nM.
For the molecule `CC(=O)N[C@@H](C)c1ccc(N2CC(Oc3cccc(C(F)(F)F)n3)C2)cc1` [Example 14.2], the IC50 was 60 nM.
With `CC(=O)N[C@@H](C)c1ccc(N2CC(Oc3ccnc(C)n3)C2)cc1` [Example 14.3, (S)—N-(1-{4-[3-(2-Methyl-pyrimidin-4-yloxy)-azetidin-1-yl]-phenyl}-ethyl)-acetamide] the figure was 980 nM.
As to `CC(=O)NC(C)(C)c1ccc(N2CC(Oc3ccc(OCC4CC4)cc3)C2)cc1` [Example 15.1, N-(1-{4-[3-(4-Cyclopropylmethoxy-phenoxy)-azetidin-1-yl]-phenyl}-1-methyl-ethyl)-acetamide], the half-maximal inhibitory concentration (IC50) was 910 nM.
For `COCCOc1ccc(OC2CN(c3ccc([C@H](C)NC(=O)c4sc(NC(C)=O)nc4C)cc3)C2)cc1` [Example 16.1, (S)-2-Acetylamino-4-methyl-thiazole-5-carboxylic acid [1-(4-{3-[4-(2-methoxy-ethoxy)-phenoxy]-azetidin-1-yl}-phenyl)-ethyl]-amide], the IC50 was 130 nM.

The term IC50 denotes the point on the concentration scale where inhibition reaches its midpoint.
